These are literature values, as cited in patent US20120071440A1, “Pharmaceutical Composition For Enhancing Adiponectin Production And Food Useful Therefor” (priority 2009, published 2012).

In the series the test system is adiponectin. Particulars: reported in Diabetes Research and Clinical Practice 2004.

As for `Cn1c(=O)c2c(ncn2C)n(C)c1=O` [caffeine], the adiponectin production entry was “capable of producing adiponectin, but this effect is not large”.
